Measurements reported in patent US4739067A, “4-(1,2,5,6-tetrahydro-1-alkyl-3-pyridinyl)-2-thiazolamines and 4-(hexahydro-1-alkyl-3-pyridinyl)-2-thiazolamines” (priority 1986, dated 1988).
Like-named read-outs stand apart in the source and are kept apart here.

Assays:
Haloperidol Receptor = molecular target: T1, Haloperidol Receptor (Bos taurus, UniProt P20288); experiment: Haloperidol Receptor Binding (dopaminergic agents); details: read-out: % Inhibition (Haloperidol Receptor Binding)
T1 construct: from tissue
T1 sequence (P20288 whole entry): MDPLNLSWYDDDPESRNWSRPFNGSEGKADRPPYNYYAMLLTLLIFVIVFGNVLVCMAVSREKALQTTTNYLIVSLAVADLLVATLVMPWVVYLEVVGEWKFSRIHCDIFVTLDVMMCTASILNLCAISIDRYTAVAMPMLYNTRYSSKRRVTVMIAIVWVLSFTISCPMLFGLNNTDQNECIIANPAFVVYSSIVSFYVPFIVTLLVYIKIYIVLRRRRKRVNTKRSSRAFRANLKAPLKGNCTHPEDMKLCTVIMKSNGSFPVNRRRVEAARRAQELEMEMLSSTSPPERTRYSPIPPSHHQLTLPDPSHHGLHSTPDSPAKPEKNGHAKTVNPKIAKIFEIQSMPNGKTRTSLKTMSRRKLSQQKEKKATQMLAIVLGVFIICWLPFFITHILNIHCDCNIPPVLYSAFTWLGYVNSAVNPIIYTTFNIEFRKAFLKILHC
From the text: The method for determining the effectiveness of the compounds of the instant invention as dopaminergic agents is explained in Mol. Pharmacol., 1976 (12) 800 herein incorporated by reference.

[1] = tested on: Locomotor Activity in Mouse; experiment: Inhibition of Locomotor Activity in Mouse (Mouse Activity and Screen Test Procedure); type: in vivo; details: read-out: ED50, Inhibition of Locomotor Activity in Mouse
From the text: The effects of representative compounds of the present invention as antipsychotic agents was established by the Mouse Activity and Screen Test Procedure described in Pharmacol. Biochem. Behav. 1978 (8) 97, herein incorporated by reference.
Inhibition of Locomotor Activity in Mouse

[2] = tested on: Spontaneous Hypertensive Rat; experiment: Antihypertensive action, Spontaneous Hypertensive Rat; type: in vivo; details: 30 mg/kg, PO
Protocol: The methodology for testing the antihypertensive action of the compounds of the invention is described in Am. J. Med. Sci., 1970 (259)257, herein incorporated by reference. These experiments are considered standard tests in mammals and are indicative of utility for treatment of similar diseases in humans.
Spontaneous Hypertensive Rat (30 mg/kg, PO)

| Compound | inhibition at 1 µM (Haloperidol Receptor; at 10^-6 M) [%] | ED50 [1] [mg/kg] | other results |
| --- | --- | --- | --- |
| Nc1nc(C2=CCCN(CCc3ccccc3)C2)cs1 [III (double bond) R=R'=H; R"=(CH2)2 Ph, 4-[1,2,5,6-Tetrahydro-1-(2-phenylethyl)-3-pyridinyl]-2-thiazolamine] |  | 18.1 | inhibition at 1 µM (Haloperidol Receptor): 16% |
| CCCCCCCN1CCC=C(c2csc(N)n2)C1 [III (double bond) R=R'=H; R"=(CH2)6 CH3, 4-(1,2,5,6-Tetrahydro-1-heptyl-3-pyridinyl)-2-thiazolamine] |  | 10.4 |  |
| CCCN1CCCC(c2csc(N)n2)C1 (stereo not drawn) [III (single bond) R=R'=H; R"=(CH2)2 CH3, 4-(1-Propyl-3-piperidyl)-2-thiazolamine] |  | 10 | inhibition at 1 µM (Haloperidol Receptor): 15% |
| CCCN1CCC=C(c2csc(NC)n2)C1 [N-Methyl-4-(1,2,5,6-tetrahydro-1-propyl-3-pyridinyl)-2-thiazolamine] |  | 10 |  |
| CCCN1CCC=C(c2csc(NC(C)=O)n2)C1 [N-[4-(1,2,5,6-Tetrahydro-1-propyl-3-pyridinyl)-2-thiazolyl]-acetamide] | 0 | 30 |  |
| CCCN1CCCC(c2csc(NC(C)=O)n2)C1 (stereo not drawn) [N-[4-(1-propyl-3-piperidyl)-2-thiazolyl]acetamide] | 9 | 30 |  |
| CCCCCN1CCC=C(c2csc(NC)n2)C1 [N-methyl-4-(1,2,5,6-tetrahydro-1-pentyl-3-pyridinyl)-2-thiazolamine] |  | < 10 |  |
| CCCCCN1CCC=C(c2csc(N(C)C(C)=O)n2)C1 [N-methyl-N-[4-(1,2,5,6-tetrahydro-1-pentyl-3-pyridinyl)-2-thiazolyl[-acetamide] |  | 6.4 |  |
| CCCN1CCC=C(c2csc(N(C)C(C)=O)n2)C1 [N-methyl-N-[4-(1,2,5,6-tetrahydro-1-propyl-3-pyridinyl)-2-thiazolyl]-acetamide] |  | 39 |  |
| CCCN1CCC=C(c2csc(N)n2)C1 [drawing 5] |  |  | Decrease in Blood Pressure ([2]; duration 1 hour): 20%; Decrease in Blood Pressure ([2]; duration up to 6 hours): 10-15%; Duration (of decrease in blood pressure) ([2]; of the 10-15% decrease): up to 6 hours; Duration (of decrease in blood pressure) ([2]; of the 20% decrease): 1 h |
| CC(C)CCN1CCC=C(c2csc(N)n2)C1 [drawing 6] |  |  | Decrease in Blood Pressure ([2]; duration up to 10 hours): 12-20%; Duration (of decrease in blood pressure) ([2]; of the 12-20% decrease): up to 10 hours |

Now from value to compound, other results behind:

| inhibition at 1 µM (Haloperidol Receptor; at 10^-6 M) [%] | Compound | ED50 [1] [mg/kg] | other results |
| --- | --- | --- | --- |
| 65 | CC(C)CCN1CCC=C(c2csc(N)n2)C1 [4-[1,2,5,6-Tetrahydro-1-(3-methylbutyl)-3-pyridinyl]-2-thiazolamine] | 8.7 |  |
| 35 | CCOCCN1CCC=C(c2csc(N)n2)C1 [4-[1-(2-Ethoxyethyl)-1,2,5,6-tetrahydro-3-pyridinyl]-2-thiazolamine] | 30 |  |
| 66 | CCCN1CCC=C(c2csc(N)n2)C1 [III (double bond) R=R'=H; R"=(CH2)2 CH3, 4-(1,2,5,6-Tetrahydro-1-propyl-3-pyridinyl)-2-thiazolamine] | 2.9 |  |
| 57 | CCCCN1CCC=C(c2csc(N)n2)C1 [III (double bond) R=R'=H; R"=(CH2)3 CH3, 4-(1,2,5,6-Tetrahydro-1-butyl-3-pyridinyl)-2-thiazolamine] | 7.3 |  |
| 26 | CCCCCN1CCC=C(c2csc(N)n2)C1 [III (double bond) R=R'=H; R"=(CH2)4 CH3, 4-(1,2,5,6-Tetrahydro-1-pentyl-3-pyridinyl)-2-thiazolamine] | < 10 |  |
| 88 | CCCCCCN1CCC=C(c2csc(N)n2)C1 [III (double bond) R=R'=H; R"=(CH2)5 CH3, 4-(1,2,5,6-Tetrahydro-1-hexyl-3-pyridinyl)-2-thiazolamine] | > 30 |  |
| 49 | CCN1CCC=C(c2csc(N)n2)C1 [III (double bond) R=R'=H; R"=CH2 CH3, 4-(1,2,5,6-Tetrahydro-1-ethyl-3-pyridinyl)-2-thiazolamine] | > 30 |  |
| 40 | C=CCN1CCC=C(c2csc(N)n2)C1 [III (double bond) R=R'=H; R"=CH2 CH=CH2, 4-(1,2,5,6-Tetrahydro-1-allyl-3-pyridinyl)-2-thiazolamine] | 3 |  |
| 50 | CN1CCC=C(c2csc(N)n2)C1 [III (double bond) R=R'=H; R"=CH3, 4-(1,2,5,6-Tetrahydro-1-methyl-3-pyridinyl)-2-thiazolamine] | 30 |  |
| 0 | CCCCCN1CCC=C(c2csc(NC(C)=O)n2)C1 [N-[4-(1,2,5,6-Tetrahydro-1-pentyl-3-pyridinyl)-2-thiazolyl]acetamide] | 10 |  |
